Measurements from patent US11542297B2, “Compositions and methods for treating CNS disorders” (Sage Therapeutics, Inc., priority 2014, dated 2023).

target: rat brain cortical membranes ([35S]-TBPS binding, GABA receptor complex); test: Steroid inhibition of [35S]-TBPS binding; settings: in the presence of 5 μM GABA, read-out: 35S-TBPS Radioligand Displacement (IC50)
Procedure: TBPS binding assays using rat brain cortical membranes in the presence of 5 μM GABA has been described (Gee et al, J. Pharmacol. Exp. Ther. 1987, 241, 346-353; Hawkinson et al, Mol. Pharmacol. 1994, 46, 977-985; Lewin, A. H et al., Mol. Pharmacol. 1989, 35, 189-194).
Briefly, cortices are rapidly removed following decapitation of carbon dioxide-anesthetized Sprague-Dawley rats (200-250 g). The cortices are homogenized in 10 volumes of […] using a glass/teflon homogenizer and centrifuged at 1500×g for 10 min at 4° C. The resultant supernatants are centrifuged at 10,000×g for 20 min at 4° C. to obtain the P2 pellets. The P2 pellets are resuspended in 200 mM NaCl/50 mM Na—K phosphate pH 7.4 buffer and centrifuged at 10,000×g for 10 min at 4° C. This washing procedure is repeated twice and the pellets are resuspended in 10 volumes of buffer. Aliquots (100 μL) of the membrane suspensions are incubated with 3 nM [^35S]-TBPS and 5 μL aliquots of test drug dissolved in dimethyl sulfoxide (DMSO) (final 0.5%) in the presence of 5 μM GABA. The incubation is brought to a final volume of 1.0 mL with buffer. […] Following a 90 min incubation at room temp, the assays are terminated by filtration through glass fiber filters (Schleicher and Schuell No. 32) using a cell harvester (Brandel) and rinsed three times with ice-cold buffer. Filter bound radioactivity is measured by liquid scintillation spectrometry. Non-linear curve fitting of the overall data for each drug averaged for each concentration is done using Prism (GraphPad).
Various compounds are or can be screened to determine their potential as modulators of [^35S]-TBPS binding in vitro. These assays are or can be performed in accordance with the above discussed procedures.

| Structure (SMILES) | IC50 |
| --- | --- |
| C[C@@]1(O)CC[C@@]2(C)[C@H](CC[C@@H]3[C@@H]2CC[C@]2(C)[C@@H](C(=O)Cn4cc(C#N)cn4)CC[C@@H]32)C1 [Compound 10, 1-(2-((3R,5R,8R,9S,10S,13S,14S,17S)-3-hydroxy-3,10,13-trimethylhexadecahydro-1H-cyclopenta[a]phenanthren-17-yl)-2-oxoethyl)-1H-pyrazole-4-carbonitrile] | < 10 nM |
| C[C@@H](C(=O)[C@H]1CC[C@H]2[C@@H]3CC[C@@H]4C[C@](C)(O)CC[C@]4(C)[C@H]3CC[C@]12C)n1nnc2ccccc21 [Compound 63, (S)-2-(1H-benzo[d][1,2,3]triazol-1-yl)-1-((3R,5R,8R,9S,10S,13S,14S,17S)-3-hydroxy-3,10,13-trimethylhexadecahydro-1H-cyclopenta[a]phenanthren-17-yl)propan-1-one] | 10 to 50 nM |
| C[C@@H](C(=O)[C@H]1CC[C@H]2[C@@H]3CC[C@H]4C[C@](C)(O)CC[C@]4(C)[C@H]3CC[C@]12C)n1cc(C#N)cn1 [Compound 81, 1-((S)-1-((3R,5S,8R,9S,10S,13S,14S,17S)-3-hydroxy-3,10,13-trimethylhexadecahydro-1H-cyclopenta[a]phenanthren-17-yl)-1-oxopropan-2-yl)-1H-pyrazole-4-carbonitrile] | 10 to 50 nM |
| CC(C)(C(=O)[C@H]1CC[C@H]2[C@@H]3CC[C@H]4C[C@](C)(O)CC[C@]4(C)[C@H]3CC[C@]12C)n1nnc2ccccc21 [Compound 102, 2-(1H-benzo[d][1,2,3]triazol-1-yl)-1-((3R,5S,8R,9S,10S,13S,14S,17S)-3-hydroxy-3,10,13-trimethylhexadecahydro-1H-cyclopenta[a]phenanthren-17-yl)-2-methylpropan-1-one] | > 500 nM |
| C[C@H](C(=O)[C@H]1CC[C@H]2[C@@H]3CC[C@H]4C[C@](C)(O)CC[C@]4(C)[C@H]3CC[C@]12C)n1nccn1 [Compound 90, (R)-1-((3R,5S,8R,9S,10S,13S,14S,17S)-3-hydroxy-3,10,13-trimethylhexadecahydro-1H-cyclopenta[a]phenanthren-17-yl)-2-(2H-1,2,3-triazol-2-yl)propan-1-one] | > 500 nM |
| CSc1ccc2nnn(CC(=O)[C@H]3CC[C@H]4[C@@H]5CC[C@H]6C[C@](C)(O)CC[C@]6(C)[C@H]5CC[C@]34C)c2c1 [Compound 248] | < 10 nM |
| C[C@H](C(=O)[C@H]1CC[C@H]2[C@@H]3CC[C@H]4C[C@](C)(O)CC[C@]4(C)[C@H]3CC[C@]12C)n1cc(C#N)cn1 [Compound 80, 1-((R)-1-((3R,5S,8R,9S,10S,13S,14S,17S)-3-hydroxy-3,10,13-trimethylhexadecahydro-1H-cyclopenta[a]phenanthren-17-yl)-1-oxopropan-2-yl)-1H-pyrazole-4-carbonitrile] | 100 to 500 nM |
| C[C@@]1(O)CC[C@@]2(C)[C@H](CC[C@@H]3[C@@H]2CC[C@]2(C)[C@@H](C(=O)Cn4nc5ccc(S(C)(=O)=O)cc5n4)CC[C@@H]32)C1 [Compound 104, 1-((3R,5R,8R,9S,10S,13S,14S,17S)-3-hydroxy-3,10,13-trimethylhexadecahydro-1H-cyclopenta[a]phenanthren-17-yl)-2-(5-(methylsulfonyl)-2H-benzo[d][1,2,3]triazol-2-yl)ethanone] | < 10 nM |
| C[C@H](C(=O)[C@H]1CC[C@H]2[C@@H]3CC[C@H]4C[C@](C)(O)CC[C@]4(C)[C@H]3CC[C@]12C)n1nnc2ccccc21 [Compound 100, (R)-2-(1H-benzo[d][1,2,3]triazol-1-yl)-1-((3R,5S,8R,9S,10S,13S,14S,17S)-3-hydroxy-3,10,13-trimethylhexadecahydro-1H-cyclopenta[a]phenanthren-17-yl)propan-1-one] | > 500 nM |
| CN(C)C(=O)c1cnn(CC(=O)[C@H]2CC[C@H]3[C@@H]4CC[C@H]5C[C@](C)(O)CC[C@]5(C)[C@H]4CC[C@]23C)c1 [Compound 86] | < 10 nM |
| C[C@H](C(=O)[C@H]1CC[C@H]2[C@@H]3CC[C@@H]4C[C@](C)(O)CC[C@]4(C)[C@H]3CC[C@]12C)n1nccn1 [Compound 56, (R)-1-((3R,5R,8R,9S,10S,13S,14S,17S)-3-hydroxyl-3,10,13-trimethylhexadecahydro-1H-cyclopenta[a]phenanthren-17-yl)-2-(2H-1,2,3-triazol-2-yl)propan-1-one] | 50 to 100 nM |
| C[C@@]1(O)CC[C@@]2(C)[C@@H](CC[C@@H]3[C@@H]2CC[C@]2(C)[C@@H](C(=O)Cn4nc5cccc(F)c5n4)CC[C@@H]32)C1 [Compound 246] | < 10 nM |
| C[C@H](C(=O)[C@H]1CC[C@H]2[C@@H]3CC[C@H]4C[C@](C)(O)CC[C@]4(C)[C@H]3CC[C@]12C)n1ccnn1 [Compound 92, (R)-1-((3R,5S,8R,9S,10S,13S,14S,17S)-3-hydroxy-3,10,13-trimethylhexadecahydro-1H-cyclopenta[a]phenanthren-17-yl)-2-(1H-1,2,3-triazol-1-yl)propan-1-one] | > 500 nM |
| CC(C(=O)[C@H]1CC[C@H]2[C@@H]3CC[C@H]4C[C@](C)(O)CC[C@]4(C)[C@H]3CC[C@]12C)N1CCOCC1 (stereo partly drawn) [Compound 155] | > 500 nM |
| C[C@H](C(=O)[C@H]1CC[C@H]2[C@@H]3CC[C@@H]4C[C@](C)(O)CC[C@]4(C)[C@H]3CC[C@]12C)n1ccnn1 [Compound 58, (R)-1-((3R,5R,8R,9S,10S,13S,14S,17S)-3-hydroxy-3,10,13-trimethylhexadecahydro-1H-cyclopenta[a]phenanthren-17-yl)-2-(1H-1,2,3-triazol-1-yl)propan-1-one] | > 500 nM |
| C[C@@H](C(=O)[C@H]1CC[C@H]2[C@@H]3CC[C@@H]4C[C@](C)(O)CC[C@]4(C)[C@H]3CC[C@]12C)n1nc2ccccc2n1 [Compound 61, (S)-2-(2H-benzo[d][1,2,3]triazol-2-yl)-1-((3R,5R,8R,9S,10S,13S,14S, 17S)-3-hydroxy-3,10,13-trimethylhexadecahydro-1H-cyclopenta[a]phenanthren-17-yl)propan-1-one] | 100 to 500 nM |

target: α1β2γ2 GABAA receptors (Homo sapiens (Human), UniProt P14867+P47870); test: Patch clamp electrophysiology of recombinant α1β2γ2 GABAA receptors (Qpatch in Ltk cells); format: cell-based; settings: 10 μM test article, potentiation of GABA EC20 (2 μM) current
Procedure: Cellular electrophysiology is used to measure the pharmacological properties of our GABAA receptor modulators in heterologous cell systems. […] LTK cells are stably transfected with the α1β2γ2 subunits of the GABA receptor and CHO cells are transiently transfected with the α4β3δ subunits via the Lipofecatamine method. Cells were passaged at a confluence of about 50-80% and then seeded onto 35 mm sterile culture dishes containing 2 ml culture complete medium without antibiotics or antimycotics. Confluent clusters of cells are electrically coupled (Pritchett et al., Science, 1988, 242, 1306-1308).
Whole cell currents were measured with HEKA EPC-10 amplifiers using PatchMaster software or by using the high throughput QPatch platform (Sophion). […] In some cases 0.005% cremophor was also added. Intracellular (pipette) solution contained: KCl 130 mM, MgCl2 1 mM, Mg-ATP 5 mM, HEPES 10 mM, EGTA 5 mM, pH 7.2. […] For manual patch clamp recordings, cell culture dishes were placed on the dish holder of the microscope and continuously perfused (1 ml/min) with bath solution. […] For experiments using the QPatch system, cells were transferred as suspension to the QPatch system in the bath solution and automated whole cell recordings were performed.
Cells were voltage clamped at a holding potential of −80 mV. […]

| Structure (SMILES) | GABA (α1β2γ2) Qpatch in Ltk, % efficacy at 10 μM |
| --- | --- |
| C[C@@]1(O)CC[C@@]2(C)[C@@H](CC[C@@H]3[C@@H]2CC[C@]2(C)[C@@H](C(=O)Cn4nnc5ccc(Cl)c(F)c54)CC[C@@H]32)C1 [Compound 113] | B (“B” >100-500) |

same assay, conditions: 10 μM test article, potentiation of GABA EC20 (2 μM) current, read-out: GABA (α1β2γ2) Qpatch in Ltk, % efficacy at 10 μM

| Structure (SMILES) | Emax at 10 µM |
| --- | --- |
| C[C@@]1(O)CC[C@@]2(C)[C@H](CC[C@@H]3[C@@H]2CC[C@]2(C)[C@@H](C(=O)Cn4nc5ccc(OC(F)(F)F)cc5n4)CC[C@@H]32)C1 [Compound 106] | 100 to 500% |
